Measurements published in US20190315823A1, “SMALL CATIONIC ANTI-BIOFILM AND IDR PEPTIDES” (priority 2013, published 2019).
Ends that are not written are not given here.

How the values were obtained:
[1] = tested on: methicillin resistant Staphylococcus aureus (MRSA) biofilm; conditions: approximate peptide concentration […] (around 3 μg/ml); compared to untreated samples
Experimental: Methods of assessment of anti-biofilm activity—Biofilm formation was initially analyzed using a static abiotic solid surface assay as described elsewhere (de la Fuente-Nunez et al., 2012). Dilutions (1/100) of overnight cultures were incubated in BM2 biofilm-adjusted medium [62 mM potassium phosphate buffer (pH 7), 7 mM (NH4)2SO4, 2 mM MgSO4, 10 μM FeSO4, 0.4% (wt/vol) glucose, 0.5% (wt/vol) Casamino Acids], or a nutrient medium such as Luria Broth, in polypropylene microtiter plates (Falcon, United States) in the absence (control) or presence of peptide. Peptide was added at time zero (prior to adding the diluted, overnight cultures) in varying concentrations, and the decrease in biofilm formation was recorded at 22-46 h for most bacteria. Planktonic cells were removed, biofilm cells adhering to the side of the tubes were stained with crystal violet, and absorbance at 595 nm was measured using a microtiter plate reader (Bio-Tek Instruments Inc., United States). Some peptides were screened against two Gram negative organisms, P. aeruginosa and K. pneumoniae using a Bioflux apparatus (AutoMate Scientific, Berkeley, Calif.; http://www.autom8.com/bioflux_biofilm.html), which allows for the high-throughput, real-time analysis of biofilms.

[2] = tested on: human peripheral blood mononuclear cells (MCP-1); assay: SPOT-synthesized derivative screen: production of chemokine MCP-1; assay type: cell-based; conditions: Table 12, No LPS, human PBMC, peptide at ~18-24 μM; for MCP1: background subtracted 139 (HH2 derivatives), 170 (1018 derivatives), 242 (1002 and hybrid peptides) pg/ml
Experimental: Venous blood (20 ml) from healthy volunteers was collected in Vacutainer® collection tubes containing sodium heparin as an anticoagulant (Becton Dickinson, Mississauga, ON) in accordance with UBC ethical approval and guidelines. Blood was diluted 1:1 with complete RPMI 1640 medium and separated by centrifugation over a Ficoll-Paque® Plus (Amersham Biosciences, Piscataway, N.J., USA) density gradient. White blood cells were isolated from the buffy coat, washed twice in RPMI 1640 complete medium, and the number of peripheral blood mononuclear cells (PBMC) was determined by Trypan blue exclusion. PBMC (5×10^5) were seeded into 12-well tissue culture dishes (Falcon; Becton Dickinson) at 0.75 to 1×10^6 cells/ml at 37° C. in 5% CO2. The above conditions were chosen to mimic conditions for circulating blood monocytes entering tissues at the site of infection via extravasation.
Following incubation of the cells under various treatment regimens, the tissue culture supernatants were centrifuged at 1000×g for 5 min, then at 10,000×g for 2 min to obtain cell-free samples. Supernatants were aliquoted and then stored at −20° C. prior to assay for various chemokines by capture ELISA (eBioscience and BioSource International Inc., CA, USA respectively)

[3] = tested on: LPS-stimulated human peripheral blood mononuclear cells (IL1-β); assay type: cell-based; conditions: Table 12, cells stimulated with 10 ng/ml LPS; for IL1β Production: LPS alone 1313 (HH2 derivatives), 1927 (1018 derivatives), 2455 (1002 and hybrid peptides) pg/ml
Experimental: LPS from P. aeruginosa strain H103 was highly purified free of proteins and lipids using the Darveau-Hancock method. Briefly, P. aeruginosa was grown overnight in LB broth at 37° C. Cells were collected and washed and the isolated LPS pellets were extracted with a 2:1 chloroform:methanol solution to remove contaminating lipids. Purified LPS samples were quantitated using an assay for the specific sugar 2-keto-3-deoxyoctosonic acid (KDO assay) and then resuspended in endotoxin-free water (Sigma-Aldrich).

Row | Substance | % Biofilm inhibition [1] [%] | Fold increase in MCP1 cf. untreated cells [2] | MCP1 [2] [pg/mL] | Fold change in IL1β relative to no peptide LPS stimulated cells [3] | IL1β Production [3] [pg/mL]
1 | 1018-L10: single substituted 1018 peptide (VRLIVAVRILRR-NH2) [Peptide 1018-L10] | 38 | 0.7 | -60 | 0.10 | 127
2 | 1002-G11: single substituted 1002 peptide (VQRWLIVWRIGK-NH2) [Peptide 1002-G11] | 60 | 2.9 | 465.0 | 0.05 | 127
3 | 1018-W7: single substituted 1018 peptide (VRLIVAWRIWRR-NH2) [Peptide 1018-W7] | 55 | 0.8 | -28 | 0.37 | 483
4 | 1002-R4: single substituted 1002 peptide (VQRRLIVWRIRK-NH2) [Peptide 1002-R4] | 36 | 0.9 | -36.2 | 0.34 | 834
5 | HH2-R5: single substituted HH2 peptide (VQLRRRVAVIRA-NH2) | 0 | 4.0 | 515 | 1.66 | 2186
6 | HH2-A1: single substituted HH2 peptide (AQLRIRVAVIRA-NH2) | 56 | 14 | 2254 | 1.21 | 1587
7 | HH2-I12: single substituted HH2 peptide (VQLRIRVAVIRI-NH2) | 65 | 18 | 2845 | 0.51 | 667
8 | HH2-L9: single substituted HH2 peptide (VQLRIRVALIRA-NH2) | 65 | 10 | 1527 | 1.04 | 1359
9 | 1002-G1: single substituted 1002 peptide (GQRWLIVWRIRK-NH2) [Peptide 1002-G1] | 68 | 14.8 | 3335.7 | 0.05 | 127
10 | HH2C-HH2N: derivative of HH2, 1002 and 1018 made by SPOT synthesis (VAVIRAVQLRIR-NH2) | 61 | 2.0 | 239.0 | 0.31 | 769
11 | 1002-K5: single substituted 1002 peptide (VQRWKIVWRIRK-NH2) [Peptide 1002-K5] | 79 | 3.4 | 592.6 | 0.14 | 339
12 | HH2-V3: single substituted HH2 peptide (VQVRIRVAVIRA-NH2) | 57 | 211 | 35750 | 1.27 | 1665
